# Data published in publication doi:10.1101/2025.05.30.657074, “A covalent recognition strategy enables conspecific mate identification” (bioRxiv, 2025).
# Columns and labels:
# [1] = target: OR3_L353A (Bombyx mori, UniProt Q5FBE0, L353A); experiment: GCaMP6 calcium flux assay, BmOR3/Orco mutant L353A; type: cell-based
# Text: (§1) The first insect pheromone system characterized at the molecular level is that of Bombyx mori, a moth long known to navigate towards its mate guided solely by pheromone cues with impressive navigation accuracy. Two PR/Orco complexes, BmOR1/BmOrco and BmOR3/BmOrco, have been linked to the behavioral responses to pheromones in B. mori (Figure 1A). The conspecific pheromone, bombykol, is detected through BmOR1/Orco and leads to sexual attraction. The heterospecific pheromone, bombykal, is sensed through BmOR3/Orco, and leads to suppression of mating behavior. We first characterized the extent to which both PR/Orco complexes are selective towards their cognate ligands. We used a previously established calcium flux functional assay where we co-transfected HEK293 cells with either BmOR1 or BmOR3, along with the coreceptor, BmOrco (here on referred to as Orco), and the fluorescent calcium reporter, GCaMP6 (Figure 1C). In this assay, ligand-activation of the heteromeric ion channel complexes by addition of either bombykol or bombykal leads to calcium influx, read out as GCaMP6 fluorescence changes that can be monitored in real-time and dose-dependent manner using a fluorescence plate reader. […]
# (§2) HEK293T cells were maintained at 37°C with 5% carbon dioxide and grown in high glucose DMEM enhanced with 10% FBS and 1% GlutaMAX (Gibco). […] Cells were kept at 37°C for 18-20 hours before being used for fluorescence plate reading. […]
# (§3) On the day of the GCaMP6 assay, Bravo (Agilent), a versatile liquid handler was used to prepare both the odorant plate and the assay plate (transfected cell plate) prior to the fluorescence readout using the FDSS/µcell kinetic plate Imager (Hamamatsu, C13299).
# (§4) For the odorant plate, the DMSO dissolved stock solutions were diluted in 19.8 µL of Reading buffer (20 mM HEPES/NaOH (pH 7.4), 1× HBSS (Gibco), 3 mM Na2CO3, 1 mM MgSO4, and 5 mM CaCl2) to give a final concentration ranging from 3.16 nM to 1 mM with 1% DMSO. […]
# (§5) The kinetics of the fluorescence change upon odorant addition were measured using the FDSS/µcell kinetic plate Imager (Hamamatsu, C13299). […]
# [2] = target: OR3_F159A (Bombyx mori, UniProt Q5FBE0, F159A); experiment: GCaMP6 calcium flux assay, BmOR3/Orco mutant F159A; type: cell-based
# Text: as §1, §2, §3, §4, §5
# [3] = target: OR3_K58S (Bombyx mori, UniProt Q5FBE0, K58S); experiment: GCaMP6 calcium flux assay, BmOR3/Orco mutant K58S; type: cell-based
# Text: (§6) The first insect pheromone system characterized at the molecular level is that of Bombyx mori, a moth long known to navigate towards its mate guided solely by pheromone cues with impressive navigation accuracy. Two PR/Orco complexes, BmOR1/BmOrco and BmOR3/BmOrco, have been linked to the behavioral responses to pheromones in B. mori (Figure 1A). The conspecific pheromone, bombykol, is detected through BmOR1/Orco and leads to sexual attraction. The heterospecific pheromone, bombykal, is sensed through BmOR3/Orco, and leads to suppression of mating behavior. We first characterized the extent to which both PR/Orco complexes are selective towards their cognate ligands. We used a previously established calcium flux functional assay where we co-transfected HEK293 cells with either BmOR1 or BmOR3, along with the coreceptor, BmOrco (here on referred to as Orco), and the fluorescent calcium reporter, GCaMP6 (Figure 1C). In this assay, ligand-activation of the heteromeric ion channel complexes by addition of either bombykol or bombykal leads to calcium influx, read out as GCaMP6 fluorescence changes that can be monitored in real-time and dose-dependent manner using a fluorescence plate reader. […] But we also found both PR/Orco complexes to be somewhat promiscuous: both complexes are activated by their non-cognate pheromones (bombykal for BmOR1/Orco and bombykol for BmOR3/Orco) with a response that is ~10 fold smaller than their cognate pheromones. […] Instead, two complexes with reciprocal specificities enable an unequivocal response to bombykal and bombykol across all concentrations, ensuring the behavioral accuracy needed for mate selection.
# (§7) The assay was performed similarly to method descriptions in previous studies.
# (§8) All DNA constructs used in this assay were cloned into a modified pME18 vector that contains a SV40 promotor.
# (§9) Each transfection condition (per well) contained a total of 300 ng of plasmids in 1:1:1 ratio of the GCaMP6, Orco, and the corresponding OR plasmid that was diluted in 4.8 uL of OptiMEM (Gibco) along with 0.1 uL of P3000. The mixture was incubated for 5 minutes and then further incubated for 20 minutes after being mixed with Lipofectamine 3000 (Invitrogen) diluted in OptiMEM. This mixture was scaled accordingly to batch transfect 50-100 wells per construct per plate.
# (§10) HEK293T cells were maintained at 37°C with 5% carbon dioxide and grown in high glucose DMEM enhanced with 10% FBS and 1% GlutaMAX (Gibco). Cells were detached with TrypLE Express Enzyme and resuspended in FluoroBrite DMEM (Gibco) with 10% FBS and 1% GlutaMAX (Gibco) to a concentration of 5 × 10^5 cells/ml. Cells were combined with each transfection condition and added to 2x16 wells of a 384-well plate (Grenier CELLSTAR). Cells were kept at 37°C for 18-20 hours before being used for fluorescence plate reading.
# (§11) Odorant plates were prepared using D300e (Hewlett Packard), a digital, non-contact dispenser. Briefly, stock solutions of bombykol and bombykal were prepared in DMSO and plated onto 384-plates (Greiner, Catalog #784201) in a titrating volume to obtain a concentration series ranging between 316 nM and 100 mM with a final volume of 0.2 µL.
# (§12) The odorant plates were kept at −20 °C until usage.
# as §3
# as §4, with “DMSO. For the cell plate, the FluoroBrite DMEM (Gibco) was exchanged out with the” for “DMSO.”
# as §5
# [4] = target: OR3_C215S (Bombyx mori, UniProt Q5FBE0, C215S); experiment: GCaMP6 calcium flux assay, BmOR3/Orco mutant C215S; type: cell-based
# Text: as §1, §2, §3, §4, §5
# [5] = target: OR3_C215A (Bombyx mori, UniProt Q5FBE0, C215A); experiment: GCaMP6 calcium flux assay, BmOR3/Orco mutant C215A; type: cell-based
# Text: as §1, §2, §3, §4, §5
# [6] = tested on: B. mori male moths; set-up: method as in PMID 24744736, PMID 22836825; conditions: conspecific male moths; cited from earlier work
# [7] = target: OR3_K58Q (Bombyx mori, UniProt Q5FBE0, K58Q); experiment: GCaMP6 calcium flux assay, BmOR3/Orco mutant K58Q; type: cell-based
# Text: as §6, §7, §8, §9, §10, §11, §12, §3
# as §4, with “DMSO. For the cell plate, the FluoroBrite DMEM (Gibco) was exchanged out with the” for “DMSO.”
# as §5
# [8] = target: OR3_V348A (Bombyx mori, UniProt Q5FBE0, V348A); experiment: GCaMP6 calcium flux assay, BmOR3/Orco mutant V348A; type: cell-based
# Text: as §1, §2, §3, §4, §5
# [9] = target: BmOR3/Orco (Bombyx mori, UniProt Q5FBE0); experiment: GCaMP6 calcium flux assay, wild-type BmOR3/Orco; type: cell-based
# Text: as §6, §7, §8, §9, §10, §11, §12, §3
# as §4, with “DMSO. For the cell plate, the FluoroBrite DMEM (Gibco) was exchanged out with the” for “DMSO.”
# as §5
# [10] = target: OR3_V352A (Bombyx mori, UniProt Q5FBE0, V352A); experiment: GCaMP6 calcium flux assay, BmOR3/Orco mutant V352A; type: cell-based
# Text: as §1, §2, §3, §4, §5
# [11] = target: BmOR1/Orco (Bombyx mori, UniProt Q5WA61); experiment: GCaMP6 calcium flux assay, wild-type BmOR1/Orco; type: cell-based
# Text: as §6, §7, §8, §9, §10, §11, §12, §3
# as §4, with “DMSO. For the cell plate, the FluoroBrite DMEM (Gibco) was exchanged out with the” for “DMSO.”
# as §5
# [12] = target: OR3_L349A (Bombyx mori, UniProt Q5FBE0, L349A); experiment: GCaMP6 calcium flux assay, BmOR3/Orco mutant L349A; type: cell-based
# Text: as §1, §2, §3, §4, §5
# [13] = target: OR3_K58A (Bombyx mori, UniProt Q5FBE0, K58A); experiment: GCaMP6 calcium flux assay, BmOR3/Orco mutant K58A; type: cell-based
# Text: as §6, §7, §8, §9, §10, §11, §12, §3
# as §4, with “DMSO. For the cell plate, the FluoroBrite DMEM (Gibco) was exchanged out with the” for “DMSO.”
# as §5
# OR3_V352A, sequence (Q5FBE0 entry or part of it V352A): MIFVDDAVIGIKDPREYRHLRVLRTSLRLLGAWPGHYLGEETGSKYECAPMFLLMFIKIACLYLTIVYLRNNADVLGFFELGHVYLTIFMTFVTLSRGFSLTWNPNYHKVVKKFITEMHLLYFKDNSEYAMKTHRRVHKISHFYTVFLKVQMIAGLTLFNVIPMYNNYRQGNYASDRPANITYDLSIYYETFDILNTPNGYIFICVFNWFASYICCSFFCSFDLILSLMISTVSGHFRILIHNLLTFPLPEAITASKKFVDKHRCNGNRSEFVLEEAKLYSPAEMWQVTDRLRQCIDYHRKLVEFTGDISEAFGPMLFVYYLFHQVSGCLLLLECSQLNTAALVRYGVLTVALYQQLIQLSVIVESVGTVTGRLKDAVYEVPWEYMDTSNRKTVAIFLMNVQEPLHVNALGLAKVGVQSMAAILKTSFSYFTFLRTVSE
# OR3_V352A, sequence (Q7YT34 entry or part of it, stated change not applied, further chain): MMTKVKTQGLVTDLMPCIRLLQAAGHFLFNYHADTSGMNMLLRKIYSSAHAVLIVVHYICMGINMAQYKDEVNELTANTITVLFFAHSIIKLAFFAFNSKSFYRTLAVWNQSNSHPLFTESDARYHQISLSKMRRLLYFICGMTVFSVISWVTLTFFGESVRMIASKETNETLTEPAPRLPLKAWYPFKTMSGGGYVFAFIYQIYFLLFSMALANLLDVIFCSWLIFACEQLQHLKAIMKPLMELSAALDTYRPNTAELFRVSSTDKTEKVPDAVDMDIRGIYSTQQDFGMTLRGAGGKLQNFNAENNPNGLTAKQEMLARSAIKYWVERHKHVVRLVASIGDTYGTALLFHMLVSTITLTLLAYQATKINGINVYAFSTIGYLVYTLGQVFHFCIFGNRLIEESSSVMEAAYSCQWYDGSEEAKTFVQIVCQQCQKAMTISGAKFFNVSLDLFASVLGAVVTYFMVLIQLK
# OR3_V348A, sequence (Q7YT34 entry or part of it, stated change not applied): as the sequence (Q7YT34 entry or part of it, stated change not applied, further chain) above
# OR3_V348A, sequence (Q5FBE0 entry or part of it V348A): as the sequence (Q5FBE0 entry or part of it V352A) above, with V348A, A352V counted along it
# OR3_L349A, sequence (Q7YT34 entry or part of it, stated change not applied): as the sequence (Q7YT34 entry or part of it, stated change not applied, further chain) above
# OR3_L349A, sequence (Q5FBE0 entry or part of it L349A): as the sequence (Q5FBE0 entry or part of it V352A) above, with L349A, A352V counted along it
# BmOR1/Orco, sequence (Q7YT34 entry or part of it): as the sequence (Q7YT34 entry or part of it, stated change not applied, further chain) above
# BmOR1/Orco, sequence (Q5WA61 entry or part of it): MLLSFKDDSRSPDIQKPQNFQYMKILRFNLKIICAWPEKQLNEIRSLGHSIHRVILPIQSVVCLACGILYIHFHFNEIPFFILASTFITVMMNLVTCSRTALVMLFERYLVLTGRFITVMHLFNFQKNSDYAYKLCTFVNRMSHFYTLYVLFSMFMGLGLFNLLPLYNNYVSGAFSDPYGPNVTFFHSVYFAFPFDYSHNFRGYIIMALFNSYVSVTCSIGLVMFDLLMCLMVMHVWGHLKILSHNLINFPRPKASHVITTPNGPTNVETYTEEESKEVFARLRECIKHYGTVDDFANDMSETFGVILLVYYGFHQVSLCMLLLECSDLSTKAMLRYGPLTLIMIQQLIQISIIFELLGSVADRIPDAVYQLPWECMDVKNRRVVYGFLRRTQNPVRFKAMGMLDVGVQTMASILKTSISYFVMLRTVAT
# OR3_C215S, sequence (Q7YT34 entry or part of it, stated change not applied): as the sequence (Q7YT34 entry or part of it, stated change not applied, further chain) above
# OR3_C215S, sequence (Q5FBE0 entry or part of it C215S): as the sequence (Q5FBE0 entry or part of it V352A) above, with C215S, A352V counted along it
# BmOR3/Orco, sequence (Q5FBE0 entry or part of it): as the sequence (Q5FBE0 entry or part of it V352A) above, with A352V counted along it
# BmOR3/Orco, sequence (Q7YT34 entry or part of it, further chain): as the sequence (Q7YT34 entry or part of it, stated change not applied, further chain) above
# OR3_K58A, sequence (Q5FBE0 entry or part of it K58A): as the sequence (Q5FBE0 entry or part of it V352A) above, with K58A, A352V counted along it
# OR3_K58A, sequence (Q7YT34 entry or part of it, stated change not applied, further chain): as the sequence (Q7YT34 entry or part of it, stated change not applied, further chain) above
# OR3_F159A, sequence (Q5FBE0 entry or part of it F159A): as the sequence (Q5FBE0 entry or part of it V352A) above, with F159A, A352V counted along it
# OR3_F159A, sequence (Q7YT34 entry or part of it, stated change not applied, further chain): as the sequence (Q7YT34 entry or part of it, stated change not applied, further chain) above
# OR3_C215A, sequence (Q5FBE0 entry or part of it C215A): as the sequence (Q5FBE0 entry or part of it V352A) above, with C215A, A352V counted along it
# OR3_C215A, sequence (Q7YT34 entry or part of it, stated change not applied, further chain): as the sequence (Q7YT34 entry or part of it, stated change not applied, further chain) above
# OR3_K58S, sequence (Q5FBE0 entry or part of it K58S): as the sequence (Q5FBE0 entry or part of it V352A) above, with K58S, A352V counted along it
# OR3_K58S, sequence (Q7YT34 entry or part of it, stated change not applied, further chain): as the sequence (Q7YT34 entry or part of it, stated change not applied, further chain) above
# OR3_L353A, sequence (Q5FBE0 entry or part of it L353A): as the sequence (Q5FBE0 entry or part of it V352A) above, with A352V, L353A counted along it
# OR3_L353A, sequence (Q7YT34 entry or part of it, stated change not applied, further chain): as the sequence (Q7YT34 entry or part of it, stated change not applied, further chain) above
# OR3_K58Q, sequence (Q5FBE0 entry or part of it K58Q): as the sequence (Q5FBE0 entry or part of it V352A) above, with K58Q, A352V counted along it
# OR3_K58Q, sequence (Q7YT34 entry or part of it, stated change not applied, further chain): as the sequence (Q7YT34 entry or part of it, stated change not applied, further chain) above
smiles,measurement,setting,value
"CCC/C=C\C=C\CCCCCCCCC=O [Bombykal, bombykal]",EC50,[1],501 nM
same,Hill Coefficient (n± SE),[1]; OR3_L353A,1.3 ± 0.2
same,Max (ΔF/F ± SE),[1]; OR3_L353A,0.91 ± 0.04 ΔF/F
same,EC50,[2],12.6 µM
same,Hill Coefficient (n± SE),[2]; OR3_F159A,4 ± 2
same,Max (ΔF/F ± SE),[2]; OR3_F159A,0.16 ± 0.02 ΔF/F
same,EC50,[3],13.8 µM
same,Hill Coefficient (n± SE),[3]; OR3_K58S,1.2 ± 0.2
same,Max (ΔF/F ± SE),[3]; OR3_K58S,0.36 ± 0.03 ΔF/F
same,EC50,[4],1260 nM
same,Hill Coefficient (n± SE),[4]; OR3_C215S,1.09 ± 0.07
same,Max (ΔF/F ± SE),[4]; OR3_C215S,0.82 ± 0.05 ΔF/F
same,EC50,[5],3.16 µM
same,Hill Coefficient (n± SE),[5]; OR3_C215A,1.4 ± 0.3
same,Max (ΔF/F ± SE),[5]; OR3_C215A,0.82 ± 0.03 ΔF/F
same,behavioral response,[6],suppresses mating behavior
same,EC50,[7],10.2 µM
same,Hill Coefficient (n± SE),[7]; OR3_K58Q,1.3 ± 0.1
same,Max (ΔF/F ± SE),[7]; OR3_K58Q,0.68 ± 0.02 ΔF/F
same,EC50,[8],479 nM
same,Hill Coefficient (n± SE),[8]; OR3_V348A,1.25 ± 0.08
same,Max (ΔF/F ± SE),[8]; OR3_V348A,1.13 ± 0.04 ΔF/F
same,EC50,"[9]; EC50, HEK293 cells co-transfected with BmOR3, BmOrco, GCaMP6",160 nM
same,EC50,"[9]; Mean (-log EC50 ± SE), wild-type BmOR3/Orco",162 nM
same,Hill Coefficient (n± SE),[9]; wild-type BmOR3/Orco,1.12 ± 0.08
same,Max (ΔF/F ± SE),"[9]; wild-type BmOR3/Orco, ΔF/F at highest ligand concentration",0.98 ± 0.05 ΔF/F
same,EC50,[10],537 nM
same,Hill Coefficient (n± SE),[10]; OR3_V352A,1.9 ± 0.2
same,Max (ΔF/F ± SE),[10]; OR3_V352A,0.63 ± 0.03 ΔF/F
same,EC50,"[11]; EC50, HEK293 cells co-transfected with BmOR1, BmOrco, GCaMP6",3 µM
same,EC50,"[11]; Mean (-log EC50 ± SE), wild-type BmOR1/Orco",3.02 µM
same,"response to non-cognate pheromone, fold smaller than cognate pheromone",[11]; bombykal vs cognate bombykol at BmOR1/Orco,~ 10 fold
same,Hill Coefficient (n± SE),[11]; wild-type BmOR1/Orco,1.41 ± 0.09
same,Max (ΔF/F ± SE),"[11]; wild-type BmOR1/Orco, ΔF/F at highest ligand concentration",1.02 ± 0.05 ΔF/F
same,EC50,[12],3.39 µM
same,Hill Coefficient (n± SE),[12]; OR3_L349A,5 ± 3
same,Max (ΔF/F ± SE),[12]; OR3_L349A,0.48 ± 0.04 ΔF/F
same,EC50,[13],15.8 µM
same,Hill Coefficient (n± SE),[13]; OR3_K58A,0.8 ± 0.2
same,Max (ΔF/F ± SE),[13]; OR3_K58A,0.18± 0.03 ΔF/F
